# In patent US8580829B2 (Boehringer Ingelheim International GmbH, priority 2010, dated 2013):
# Like-named read-outs stand apart in the source and are kept apart here.
# Key:
# [1] = system: synthesis of LTB4 in human whole blood; assay: human whole blood LTB4 production inhibition assay; format: cell-based; conditions: heparinized human whole blood, calcimycin 20 μM, read-out: hWB LTB4 IC50
# Summary of the method: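 Heparinized human whole blood was preincubated with compound for 15 min at 37° C, then stimulated with calcimycin (20 μM final, in PBS pH 7.4) for a further 30 min at 37° C. Plasma LTB4 was quantified by antibody-based homogeneous time-resolved fluorescence.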
# [2] = target: T1, recombinant human FLAP protein (Homo sapiens, UniProt P20292); assay: FLAP binding assay (Scintillation Proximity Assay, displacement of [125I]L-691,831); conditions: recombinant human FLAP membranes, [125I]L-691,831 probe; read-out: FLAP SPA IC50
# T1 construct: made in house; host or cells: Sf9 insect cells (100,000 x g membrane fraction)
# T1 sequence (P20292 1-161): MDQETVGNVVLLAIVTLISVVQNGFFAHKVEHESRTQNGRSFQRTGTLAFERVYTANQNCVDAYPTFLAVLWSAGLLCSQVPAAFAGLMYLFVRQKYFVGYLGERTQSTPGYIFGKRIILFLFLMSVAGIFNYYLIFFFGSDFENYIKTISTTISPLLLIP
# Summary of the method: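 WGA scintillation proximity beads were stirred 1 h with 5 μg of FLAP-containing membrane protein. The membranes came from baculovirus Sf9 cells, Dounce-lysed and spun to a 100,000×g pellet in buffer at pH 7.5.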
SMILES,IC50 ([1]; Homo sapiens),IC50 [2],IC50 [1]
"COC1CCN(C(=O)Cn2cc(-c3nc(C4(c5ccc(-c6cnc(N)nc6)cc5)CCC4)no3)cn2)C1 (stereo not drawn) [Example 210, 2-[4-(3-{1-[4-(2-Amino-pyrimidin-5-yl)-phenyl]-cyclobutyl}-[1,2,4]oxadiazol-5-yl)-pyrazol-1-yl]-1-(3-methoxy-pyrrolidin-1-yl)-ethanone]",110 nM,4.6 nM,
"CCN(CC)C(=O)n1cc(-c2nc(C3(c4ccc(-c5cnc(N)nc5)cc4)CCC3)no2)cn1 [Example 211, 4-(3-{1-[4-(2-Amino-pyrimidin-5-yl)-phenyl]-cyclobutyl}-[1,2,4]oxadiazol-5-yl)-pyrazole-1-carboxylic acid diethylamide]",89 nM,3 nM,
"Nc1ncc(-c2ccc(C3(c4noc(-c5cnn(C(=O)N6CCOCC6)c5)n4)CCC3)cc2)cn1 [Example 212, [4-(3-{1-[4-(2-Amino-pyrimidin-5-yl)-phenyl]-cyclobutyl}-[1,2,4]oxadiazol-5-yl)-pyrazol-1-yl]-morpholin-4-yl-methanone]",22 nM,2.2 nM,
"Nc1ncc(-c2ccc(C3(c4noc(-c5cnc(N6CCNCC6)cn5)n4)CCC3)cc2)cn1 [Example 214, 5-(4-{1-[5-(3,4,5,6-Tetrahydro-2H-[1,2′]bipyrazinyl-5′-yl)-[1,2,4]oxadiazol-3-yl]-cyclobutyl}-phenyl)-pyrimidin-2-ylamine]",,4 nM,150 nM
"Cn1cc(-c2nc(C3(c4ccc(-c5ccc(N)nc5)cc4)CCC3)no2)cn1 [Example 215, 5-(4-{1-[5-(1-Methyl-1H-pyrazol-4-yl)-[1,2,4]oxadiazol-3-yl]-cyclobutyl}-phenyl)-pyridin-2-ylamine]",26 nM,2.1 nM,
"CC(C)CNC(=O)Cn1cc(-c2nc(C3(c4ccc(-c5cnc(N)nc5)cc4)CCC3)no2)cn1 [Example 217, 2-[4-(3-{1-[4-(2-Amino-pyrimidin-5-yl)-phenyl]-cyclobutyl}-[1,2,4]oxadiazol-5-yl)-pyrazol-1-yl]-N-isobutyl-acetamide]",81 nM,3.4 nM,
"CN1CCN(C(=O)Cn2cc(-c3nc(C4(c5ccc(-c6cnc(N)nc6)cc5)CCC4)no3)cn2)CC1 [Example 219, 2-[4-(3-{1-[4-(2-Amino-pyrimidin-5-yl)-phenyl]-cyclobutyl}-[1,2,4]oxadiazol-5-yl)-pyrazol-1-yl]-1-(4-methyl-piperazin-1-yl)-ethanone]",140 nM,3.1 nM,
"Cc1cc(-c2ccc(C3(c4noc(-c5cnn(C)c5)n4)CCC3)cc2)cnc1N [Example 221, 3-Methyl-5-(4-{1-[5-(1-methyl-1H-pyrazol-4-yl)-[1,2,4]oxadiazol-3-yl]-cyclobutyl}-phenyl)-pyridin-2-ylamine]",47 nM,1.9 nM,
"Cc1nc(-c2ccc(C3(c4noc(-c5cnn(C)c5)n4)CCC3)cc2)cnc1N [Example 222, 3-Methyl-5-(4-{1-[5-(1-methyl-1H-pyrazol-4-yl)-[1,2,4]oxadiazol-3-yl]-cyclobutyl}-phenyl)-pyrazin-2-ylamine]",44 nM,2.2 nM,
"Nc1ncc(-c2ccc(C3(c4noc(-c5cnn(CC(=O)NCC6CCCO6)c5)n4)CCC3)cc2)cn1 (stereo not drawn) [Example 224, 2-[4-(3-{1-[4-(2-Amino-pyrimidin-5-yl)-phenyl]-cyclobutyl}-[1,2,4]oxadiazol-5-yl)-pyrazol-1-yl]-N-(tetrahydro-furan-2-ylmethyl)-acetamide]",64 nM,2.8 nM,
"NCCn1cc(-c2nc(C3(c4ccc(-c5cnc(N)nc5)cc4)CCC3)no2)cn1 [Example 227, 5-[4-(1-{5-[1-(2-Amino-ethyl)-1H-pyrazol-4-yl]-[1,2,4]oxadiazol-3-yl}-cyclobutyl)-phenyl]-pyrimidin-2-ylamine]",240 nM,2.6 nM,
"COCCNC(=O)Cn1cc(-c2nc(C3(c4ccc(-c5cnc(N)nc5)cc4)CCC3)no2)cn1 [Example 228, 2-[4-(3-{1-[4-(2-Amino-pyrimidin-5-yl)-phenyl]-cyclobutyl}-[1,2,4]oxadiazol-5-yl)-pyrazol-1-yl]-N-(2-methoxy-ethyl)-acetamide]",160 nM,3.3 nM,
"CC(=O)NCCn1cc(-c2nc(C3(c4ccc(-c5cnc(N)nc5)cc4)CCC3)no2)cn1 [Example 229, N-{2-[4-(3-{1-[4-(2-Amino-pyrimidin-5-yl)-phenyl]-cyclobutyl}-[1,2,4]oxadiazol-5-yl)-pyrazol-1-yl]-ethyl}-acetamide]",410 nM,6 nM,
"CS(=O)(=O)CCn1cc(-c2nc(C3(c4ccc(-c5cnc(N)nc5)cc4)CCC3)no2)cn1 [Example 231, 5-[4-(1-{5-[1-(2-Methanesulfonyl-ethyl)-1H-pyrazol-4-yl]-[1,2,4]oxadiazol-3-yl}-cyclobutyl)-phenyl]-pyrimidin-2-ylamine]",61 nM,2.3 nM,
"Nc1ncc(-c2ccc(C3(c4noc(-c5cnn(C6CCNCC6)c5)n4)CCC3)cc2)cn1 [Example 233, 5-(4-{1-[5-(1-Piperidin-4-yl-1H-pyrazol-4-yl)-[1,2,4]oxadiazol-3-yl]-cyclobutyl}-phenyl)-pyrimidin-2-ylamine]",700 nM,9.8 nM,
"COC1CCN(C(=O)Cn2cc(-c3nc(C4(c5ccc(-c6cnc(N)nc6)cc5)CCC4)no3)cn2)CC1 [Example 234, 2-[4-(3-{1-[4-(2-Amino-pyrimidin-5-yl)-phenyl]-cyclobutyl}-[1,2,4]oxadiazol-5-yl)-pyrazol-1-yl]-1-(4-methoxy-piperidin-1-yl)-ethanone]",82 nM,3.5 nM,
"COC1CN(C(=O)Cn2cc(-c3nc(C4(c5ccc(-c6cnc(N)nc6)cc5)CCC4)no3)cn2)C1 [Example 236, 2-[4-(3-{1-[4-(2-Amino-pyrimidin-5-yl)-phenyl]-cyclobutyl}-[1,2,4]oxadiazol-5-yl)-pyrazol-1-yl]-1-(3-methoxy-azetidin-1-yl)-ethanone]",230 nM,5.6 nM,

# Compounds with a lower IC50 [2], results first:
IC50 ([1]; Homo sapiens),IC50 [2],IC50 [1],SMILES
110 nM,0.85 nM,,"CNC(=O)n1cc(-c2nc(C3(c4ccc(-c5cnc(N)nc5)cc4)CCC3)no2)cn1 [Example 213, 4-(3-{1-[4-(2-Amino-pyrimidin-5-yl)-phenyl]-cyclobutyl}-[1,2,4]oxadiazol-5-yl)-pyrazole-1-carboxylic acid methylamide]"
59 nM,1.3 nM,,"Nc1ncc(-c2ccc(C3(c4noc(-c5cnn(CCN6CCCC6=O)c5)n4)CCC3)cc2)cn1 [Example 216, 1-{2-[4-(3-{1-[4-(2-Amino-pyrimidin-5-yl)-phenyl]-cyclobutyl}-[1,2,4]oxadiazol-5-yl)-pyrazol-1-yl]-ethyl}-pyrrolidin-2-one]"
160 nM,1.2 nM,,"Nc1ncc(-c2ccc(C3(c4noc(-c5cnn(CC(=O)NC6CCOCC6)c5)n4)CCC3)cc2)cn1 [Example 218, 2-[4-(3-{1-[4-(2-Amino-pyrimidin-5-yl)-phenyl]-cyclobutyl}-[1,2,4]oxadiazol-5-yl)-pyrazol-1-yl]-N-(tetrahydro-pyran-4-yl)-acetamide]"
16 nM,0.7 nM,,"Cn1cc(-c2nc(C3(c4ccc(-c5cnc(N)cn5)cc4)CCC3)no2)cn1 [Example 220, 5-(4-{1-[5-(1-Methyl-1H-pyrazol-4-yl)-[1,2,4]oxadiazol-3-yl]-cyclobutyl}-phenyl)-pyrazin-2-ylamine]"
460 nM,1.8 nM,,"CC(C)(C#N)NC(=O)Cn1cc(-c2nc(C3(c4ccc(-c5cnc(N)nc5)cc4)CCC3)no2)cn1 [Example 223, 2-[4-(3-{1-[4-(2-Amino-pyrimidin-5-yl)-phenyl]-cyclobutyl}-[1,2,4]oxadiazol-5-yl)-pyrazol-1-yl]-N-(cyano-dimethyl-methyl)-acetamide]"
> 5000 nM,0.89 nM,,"CS(=O)(=O)CCNC(=O)Cn1cc(-c2nc(C3(c4ccc(-c5cnc(N)nc5)cc4)CCC3)no2)cn1 [Example 225, 2-[4-(3-{1-[4-(2-Amino-pyrimidin-5-yl)-phenyl]-cyclobutyl}-[1,2,4]oxadiazol-5-yl)-pyrazol-1-yl]-N-(2-methanesulfonyl-ethyl)-acetamide]"
45 nM,1.2 nM,,"Nc1ncc(-c2ccc(C3(c4noc(-c5cnn(C6CCS(=O)(=O)C6)c5)n4)CCC3)cc2)cn1 (stereo not drawn) [Example 226, 5-[4-(1-{5-[1-(1,1-Dioxo-tetrahydro-1lambda6-thiophen-3-yl)-1H-pyrazol-4-yl]-[1,2,4]oxadiazol-3-yl}-cyclobutyl)-phenyl]-pyrimidin-2-ylamine]"
64 nM,1.3 nM,,"CSCCn1cc(-c2nc(C3(c4ccc(-c5cnc(N)nc5)cc4)CCC3)no2)cn1 [Example 230, 5-[4-(1-{5-[1-(2-Methylsulfanyl-ethyl)-1H-pyrazol-4-yl]-[1,2,4]oxadiazol-3-yl}-cyclobutyl)-phenyl]-pyrimidin-2-ylamine]"
26 nM,1.8 nM,,"Nc1ncc(-c2ccc(C3(c4noc(-c5cnn(CCN6CCOCC6)c5)n4)CCC3)cc2)cn1 [Example 232, 5-[4-(1-{5-[1-(2-Morpholin-4-yl-ethyl)-1H-pyrazol-4-yl]-[1,2,4]oxadiazol-3-yl}-cyclobutyl)-phenyl]-pyrimidin-2-ylamine]"
67 nM,1.7 nM,,"CN(C(=O)Cn1cc(-c2nc(C3(c4ccc(-c5cnc(N)nc5)cc4)CCC3)no2)cn1)C1CCOCC1 [Example 235, 2-[4-(3-{1-[4-(2-Amino-pyrimidin-5-yl)-phenyl]-cyclobutyl}-[1,2,4]oxadiazol-5-yl)-pyrazol-1-yl]-N-methyl-N-(tetrahydro-pyran-4-yl)-acetamide]"
